In patent publication US5925621A, “Method for preventing sexually transmitted diseases” (priority 1997, dated 1999):

Assays:
[1] = tested on: sheep testicular hyaluronidase; assay: hyaluronidase inhibition (hyaluronic acid hydrolysis); format: biochemical; details: 10 minutes preincubation, pH 5.5; inactive = no inhibition at 1 mg/ml
Experimental: Hyaluronidase activity was quantitatively determined by measuring the extent of hyaluronic acid hydrolysis (i.e., the concentration of N-acetylglucosamine-reactive material formed from enzyme activity). Reaction mixtures (0.25 ml) containing the following were prepared: test compound (variable concentration); 0.1 M sodium acetate; 0.15 M sodium chloride; pH adjusted to 5.5; 7.2 units sheep testicular hyaluronidase (Sigma, Type III; H-2251) contained in an acetate buffer; 0.3 mg/ml hyaluronic acid (Sigma, from bovine vitreous humor; H-7630). The enzyme was preincubated with the test agent (1 mg/ml for screening purposes) for 10 minutes before starting the reaction by the addition of hyaluronic acid. The enzyme reaction was determined using the method of Aronson and Davidson (J. Biol. Chem. 241 437-440 (1967)). The reaction mixture was incubated for 30 minutes at room temperature. The reaction product was determined calorimetrically with p-dimethylaminobenzaldehyde (Reissig et al., J. Biol. Chem. 217 959-966 (1965)) by measuring the absorbance at 545 nm.
The reversibility of the hyaluronidase was determined by evaluating enzyme activity at different levels of enzyme (Ackermann and Potter, Proc. Soc. Exp. Biol. Med. 72 1-9 (1949)).

MT2 cells = assay: cytotoxicity of test compound towards host (MT2) cells; format: cell-based; details: at the levels of Example 5
Experimental: Serial dilutions of the test compounds (ranging from 0.1 μg/ml to 1.0 mg/ml) were added to HIV-1 virus such that 50 μl inoculum produced between 70 to 100 syncytia per well in untreated wells containing MT2 cells. The HIV-1 used was strain IIIs propagated in, and harvested from, a T4-lymphobastoid cell line. Each serial dilution of the test compound with virus was placed in each of three wells containing MT2 cells. The test compound alone was added to a fourth well containing MT2 cells to test for possible cytotoxicity. Triplicate virus control samples (no added test compounds but containing the equivalent amounts of the RPMI medium) were also included.

Lactobacillus gasseri = assay: effect on normal vaginal flora (Lactobacillus gasseri growth); format: cell-based; details: 0.5 mg/ml
Experimental: This example illustrates the effect of the inhibitory agents of this invention on the normal vaginal flora. Lactobacillus gasseri, which is found in normal vaginal flora, was obtained from the American Type Culture Collection (Rockville, Md.) and cultured under anaerobic conditions at 37° C. in the presence of the desired test agents. Control samples without added test agents were also run. Samples were collected at twenty minute intervals starting at 120 minutes after the start of incubation through 240 minutes. The absorbance at 550 nm was used to estimate the cell density and inhibitory effects. Nonoxynol-9 was also evaluated for comparison purposes.

[2] = tested on: vaginal/cervical epithelial and other cells; details: cited from earlier work

Substance: Nonoxynol-9
- IC50 hyaluronidase [1]: inactive
- cytotoxic towards the MT2 cells (MT2 cells): did show cytotoxic effects
- inhibition of growth of Lactobacillus gasseri (Lactobacillus gasseri): about 60%
- lowest concentration that can injure vaginal/cervical epithelial and other cells [2]: about 0.0005%
